Laboratory results as given in publication PMC12491243, “Rational design of indoleamine 2,3-dioxygenase 1 (IDO1) inhibitors featuring 1,2,3-triazole derivatives with enhanced anti-inflammatory and analgesic efficacy” (Frontiers in Pharmacology, 2025).

Legend:
Type in all cases: in vivo
IL-1β = assay: ELISA of IL-1β in inflamed paw, spinal cord and serum of CFA mice; conditions: ipsilateral L4–L6 spinal cord and serum, 72 h after CFA
Text: (§1) To determine whether the analgesic effects of Compound 14e are associated with reduced local and systemic inflammation, we measured the levels of inflammatory factors in the inflamed paw tissue, ipsilateral L4–L6 spinal cord, and peripheral blood. The results indicated a significant increase in the protein levels of TNF-α and IL-1β in the inflamed paw, spinal cord, and serum of mice in the CFA group compared to the vehicle group.
(§2) FIGURE 6 Compound 14e reduces TNF-α and IL-1β in the inflamed hindpaw skin, spinal cord and peripheral blood 72 h after CFA-induced inflammation. (A,D) Expression levels of TNF-α and IL-1β in the inflamed skin tissue. (B,E) Expression levels of TNF-α and IL-1β in ipsilateral L4–6 spinal cord. […]
(§3) Under anesthesia with 1% pentobarbital sodium, serum was obtained from the mice orbits, after coagulation at room temperature for 2 h, the sample was then centrifuged at 1,000 × g for 20 min at 4 °C, with the supernatant collected. […] The protein concentrations were determined using a bicinchoninic acid (BCA) kit (Pierce Biotechnology Inc.). The following inflammatory factors were measured using Mouse TNF-α ELISA kit (EM0183) and IL-1β ELISA kit (EM0109) obtained from Wuhan Fine Biotechnology Company, according to the product protocols. The O.D. absorbance at 450 nm was quantified in a ultramicroplate spectrophotometer (BioTek Epoch).

Iba1 = assay: Western blot of Iba1 in spinal cord of CFA mice; conditions: L4–L6 spinal cord, 30 mg/kg i.p. once a day for 3 days, versus vehicle group
Description: (§4) Given the critical role of microglial activation in inflammation-mediated responses, we investigated whether Compound 14e could modulate microglial activity in the spinal dorsal horn of mice following Complete Freund’s Adjuvant (CFA) injection. First, we assessed the expression of the microglial marker Iba1 in the L4–L6 segments of the spinal cord.
(§5) FIGURE 4 Compound 14e prevented the upregulation of Iba1 in CFA mice.
(§6) The mice were anesthetized with isoflurane, and 40 μL of CFA (Sigma-Aldrich) was intraplantarly injected into the mid-plantar surface of their left hind paws. As for the control group, an equivalent volume of normal saline was injected ([Jiang et al., 2018]).
(§7) The compound 14e were diluted with 10% DMSO, and were intraperitoneally injected with 30 mg/kg into the mice once a day for 3 days after CFA. The dosage of compound 14e was determined based on our preliminary experiments.
Animals were deeply anesthetized with 1% pentobarbital sodium (0.1 g/kg, i. p.) and the ipsilateral spinal cord in the lumbar enlargement site was rapidly separated and homogenized in ice-cold lysis buffer containing 50 mM Tris-HCl (pH 7.4), 150 mM NaCl, 1% NP-40, 0.1% SDS, 1 mM phenylmethylsulfonyl fluoride and protease phosphatase inhibitor (Solarbio Company, China). […] The protein concentrations were measured using a bicinchoninic acid (BCA) kit (Pierce Biotechnology Inc.). […]

Iba1-positive microglia = assay: Immunofluorescence of Iba1-positive microglia in spinal dorsal horn of CFA mice; conditions: 3 days after CFA, 30 mg/kg i.p.
Description: as §4, §5, §6, §7
Under anesthesia with 1% pentobarbital sodium (0.1 g/kg, i. p.), mice were perfused intracardially with warm normal saline followed by cold 4% paraformaldehyde (PFA) in 0.1 M phosphate buffer (PB). The whole spinal cord in L4 – L5 segments was rapidly dissected and post-fixed in 4% PFA for 6 h, then cryoprotected by incubation of PB with 20% and 30% sucrose solutions at 4 °C in turn. […] Images were taken with a fluorescence microscope (BX53, Olympus).

TNF-α = assay: ELISA of TNF-α in inflamed paw, spinal cord and serum of CFA mice; conditions: ipsilateral L4–L6 spinal cord and serum, 72 h after CFA
Text: as §1, §2, §3

O=C1COc2ccc(NC(=O)c3cccc(-c4cn(Cc5c(F)cccc5Cl)nn4)c3)cc2N1 [Compound 14e]
CFA-induced levels of IL-1β (IL-1β): significantly decreased | Iba1 protein level (Western blot) (Iba1): significantly reduced | morphological changes and accumulation of Iba1-positive microglia (immunofluorescence) (Iba1-positive microglia): notably alleviated | CFA-induced levels of TNF-α (TNF-α): significantly decreased
